The test system of assay [1] is IL-2 receptor α-chain (IL-2Rα, CD25). The assay is described as follows: Flow cytometric analysis of IL-2R (CD25) expression. It counts as cell-based, mouse. The conditions noted are these: biliverdin 100 μM, anti-CD3 mAb stimulated, 6 and 24 hours. As to the method:
Flow cytometric analysis (IL-2R expression). B6AF1 leukocytes (5×10^5 cells/well) were stimulated with anti-CD3 mAb (1 μg/ml) and cultured in 96 well round bottom plates with or without biliverdin (100 μM). Six and 24 hours after stimulation, cells were harvested, washed, and stained with fluorochrome conjugated isotype control Abs, or specific anti-CD4 and/or anti-CD25 mAbs (all antibodies obtained from BD Pharmingen). Non-stimulated naïve leukocytes were used as a negative control. Following Abs staining, cell samples were analyzed using a FACSort™ flow cytometer and CellQuest™ software (BD Biosciences, Palo Alto, Calif.). Ten thousand CD4+ T cells were acquired for each sample and their CD25 expression was examined. The experiment was repeated 3 times.
On the technique in general: In flow cytometry, cells or beads pass a laser one at a time.

In assay [2] the test system is HO-1. Briefly: HO-1 induction during intestinal I/R injury. It counts as in vivo, LEW rats. The conditions noted are these: BV treatment. As to the method:
HO-1 Induction During Intestinal I/R Injury. Since HO-1 regulates heme catalysis and BV production, exogenously provided BV may influence endogenous HO-1 induction in BV-treated recipients. In the normal intestine, HO-1 protein expression was absent. Ischemia/reperfusion injury was associated with a gradual increase of HO-1 expression in air-treated grafts, reaching maximum level between 6 and 24 hours following reperfusion.

Assay [3] in a line: Total antioxidant capacity of graft, SITx with 6 hours preservation. It counts as in vivo, LEW rats. The text has this: Antioxidant capacity after BV treatment. the total antioxidant capacity or antioxidant power within the graft specimens was quantitatively measured. Antioxidant levels in the graft were detected using Total Antioxidant Power® (Oxford Biomedical Research, Oxford, Mich.), according to the manufacturer's instructions. In this procedure, the evaluation of the antioxidant level in a sample is detected by evaluation of Cu^+ derived from Cu^++ by the combined action of all antioxidants present in the sample.

For the next assay, the system named is nitric oxide. Briefly: Serum nitrite/nitrate, SITx with preserved intestine. The format is in vivo, LEW rats. The method, then:
Detection of Serum Mediators. Serum samples from the recipients transplanted with preserved intestine were taken at 3 and 12 hours after reperfusion and stored at […] until evaluation. Serum IL-6 was determined using a rat enzyme-linked immunoassay (ELISA) kits as described by the manufacturer (R & D Systems, Inc., Cambridge, Mass.). To monitor the production of nitric oxide, the stable end products of NO metabolism, serum nitrite/nitrate levels, were measured 12 hours after engraftment using a commercially available test kit (Cayman, Ann Arbor, Mich.). In this assay system, nitrate is reduced to nitrite using nitrate reductase, and the nitrite concentration of the sample is subsequently measured using the Griess reaction.

The test system of another assay is intestinal graft. Briefly: Intestinal microvascular blood flow (laser Doppler). As to conditions: BV. It counts as in vivo, LEW rats. As to the method: Measurement of Intestinal Blood Flow. Intestinal microvascular blood flow was monitored by placing the flat probe of a laser Doppler flowmeter (BLF 21D, Transonic Systems, Ithaca, N.Y.) on the serosal surface of the graft jejunum and ileum adjacent to the mesenteric border. Blood flows in SMA and marginal artery (MA) were also analyzed.
Measurement of Intestinal Blood Flow. Microvascular blood flow for in grafts preserved for 6 hours was measured using a laser Doppler flowmeter (BLF 21D, Transonic Systems, Ithaca, N.Y.) equipped with a flat probe. Intestinal microvascular blood flow was monitored by placing the probe on the serosal surface of the graft jejunum and ileum adjacent to the mesenteric border.

The subject of assay [4] is HO-1. The assay is described as follows: HO-1 expression in donor tissues and islets after CoPP. It counts as in vivo, mice. The conditions noted are these: CoPP given to the donor animal; heart, kidney, pancreas, liver and spleen. As to the method:
Induction of HO-1/Administration of biliverdin/bilirubin. When given to the donor, CoPPIX (20 mg/kg) was given 24 hours before islet isolation to induce HO-1 expression. To verify HO-1 expression in different organs after CoPP treatment, tissue samples are collected 24 hours after treatment and snap frozen in liquid nitrogen. Immunohistological analysis of HO-1 expression is performed using an anti-HO-1 antibody. CoPPIX (20 mg/kg) was administrated to the recipient intraperitoneally (i.p.) on day-1, 1, 3, 5 and 7. Biliverdin (50 μmol/kg) or bilirubin (8.5 μmol/kg) was given intraperitoneally to the donor one hour before islet isolation. For the recipient, biliverdin (50 μmol/kg) or bilirubin ([…]) was administered intraperitoneally either daily or twice per day from day-1 until day 13. No further treatment was given afterwards.
Semi-Quantitative PCR. RNA was extracted using Rneasy™ Mini Kits (Qiagen Inc., CA, USA) and reverse transcribed into cDNA with the RNA PCR Kit (TaKaRa, PanVera, Madison, Wis., USA). A total of 2 μg of cDNA was amplified in a 50 μl reaction mix containing 10 μM dNTPs, […] of 5′-prime and 3′-prime oligos, 2.5 U of LA-Taq polymerase (TaKaRa) and MgCl2, specific to each primer pair used. […] PCR products (10-20 μl) were analyzed in an ethidium bromide-stained 1% agarose gel.

Counter-ions that a name gives are not always drawn.

With `C=CC1=C(C)/C(=C/C2=NC(=C\c3[nH]c(/C=C4\NC(=O)C(C)=C4C=C)c(C)c3CCC(=O)O)/C(CCC(=O)O)=C2C)NC1=O` [biliverdin, biliverdin dihydrochloride], in assay [1], the “expression of IL-2Rα (CD25) on splenic CD4+ T cells” value is “did not affect”. Moreover, the “intestinal HO-1 production” value with HO-1 [2] is “did not have a significant effect”. For the same molecule, the “antioxidant capacity of the transplanted intestine” value in assay [3] is “increased the antioxidant capacity of the transplanted intestine to normal levels”. For the same molecule, in the assay with nitric oxide (BV treated controls (no transplant)), the “mean serum nitrite/nitrate (NO) level” value stood at 18.4 ± 3.2 µM. Further, the “decrease of transplantation-induced serum NO levels” value in the assay on nitric oxide (SITx, 12 hours after engraftment) is recorded as 53%. For the same molecule, in the assay with nitric oxide (SITx, 12 hours after engraftment, untreated 34.4±15.2), the “serum NO level” value came out at 18.2 ± 3.9 µM. Moreover, the “microvascular blood flow following transplantation” value in the assay on intestinal graft was “had no effect”.

Take `C=CC1=C(C)c2cc3[n-]c(cc4nc(cc5[n-]c(cc1n2)c(C)c5CCC(=O)[O-])C(CCC(=O)[O-])=C4C)c(C)c3C=C.[Co+2].[H+].[H+]` [CoPP, Cobalt protoporphyrin]: in the assay on HO-1 [4], the “HO-1 expression in donor tissues” value is “HO-1 expression was observed in several different tissues”.

(Values after US8097585B2, “Methods of treating inflammation by administration of heme oxygenase-1 and products of heme degradation” (priority 2002, dated 2012).)
